Reference: article PMC7156458, “Synthetic biology based construction of biological activity-related library of fungal decalin-containing diterpenoid pyrones” (Nature Communications, 2020)

Biological target: Aβ42 (Homo sapiens, UniProt P05067)
Assay: Th-T (thioflavin-T) assay of Aβ42 aggregation
Assay type: biochemical

Chain of Aβ42 (P05067 672-713): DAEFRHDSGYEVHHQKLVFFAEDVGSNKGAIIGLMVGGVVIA

## C=C1CC[C@@H]2[C@](C)(CC[C@H]3O[C@H](C=C(C)C)C[C@@]23C)[C@@H]1Cc1c(OC)oc(CO)c(C(=O)OC)c1=O [Compound 21]
Column suffix _20, reading M101
  Fig. 7a Th-T reading, mean of three wells: 0.9158
Column suffix _20, reading M102
  Fig. 7a Th-T reading, mean of three wells: 0.9188
Column suffix _20, reading M103
  Fig. 7a Th-T reading, mean of three wells: 0.9187
Column suffix _20, reading M104
  Fig. 7a Th-T reading, mean of three wells: 0.9595
Column suffix _20, reading M105
  Fig. 7a Th-T reading, mean of three wells: 0.9387
Column suffix _20, reading M106
  Fig. 7a Th-T reading, mean of three wells: 0.9399
Column suffix _50, measurement M19
  Th-T fluorescence, mean of three wells (Fig. 7a): 0.2078
Column suffix _50, measurement M20
  Th-T fluorescence, mean of three wells (Fig. 7a): 0.2087
Column suffix _50, measurement M21
  Th-T fluorescence, mean of three wells (Fig. 7a): 0.2125
Column suffix _50, measurement M22
  Th-T fluorescence, mean of three wells (Fig. 7a): 0.212
Column suffix _50, measurement M23
  Th-T fluorescence, mean of three wells (Fig. 7a): 0.2107
Column suffix _50, measurement M24
  Th-T fluorescence, mean of three wells (Fig. 7a): 0.2101
Column suffix _50, measurement M25
  Th-T fluorescence, mean of three wells (Fig. 7a): 0.2098
Column suffix _50, measurement M26
  Th-T fluorescence, mean of three wells (Fig. 7a): 0.2113
Column suffix _50, measurement M27
  Th-T fluorescence, mean of three wells (Fig. 7a): 0.2118
Column suffix _50, measurement M28
  Th-T fluorescence, mean of three wells (Fig. 7a): 0.2093
Column suffix _50, measurement M29
  Th-T fluorescence, mean of three wells (Fig. 7a): 0.2091
Column suffix _50, reading M1
  Th-T assay signal, mean of three wells (Fig. 7a): 0.2216
Column suffix _50, reading M2
  Th-T assay signal, mean of three wells (Fig. 7a): 0.219
Column suffix _50, reading M3
  Th-T assay signal, mean of three wells (Fig. 7a): 0.2148
Column suffix _50, reading M4
  Th-T assay signal, mean of three wells (Fig. 7a): 0.2093
Column suffix _50, reading M5
  Th-T assay signal, mean of three wells (Fig. 7a): 0.2111
Column suffix _50, reading M6
  Th-T assay signal, mean of three wells (Fig. 7a): 0.209
Column suffix _50, reading M7
  Th-T assay signal, mean of three wells (Fig. 7a): 0.2096
Column suffix _50, reading M8
  Th-T assay signal, mean of three wells (Fig. 7a): 0.2075
Column suffix _50, reading M9
  Th-T assay signal, mean of three wells (Fig. 7a): 0.2085
Column suffix _50, reading M10
  Th-T assay signal, mean of three wells (Fig. 7a): 0.2097
Column suffix _50, reading M11
  Th-T assay signal, mean of three wells (Fig. 7a): 0.2085
Column suffix _50, reading M12
  Th-T assay signal, mean of three wells (Fig. 7a): 0.2082
Column suffix _50, reading M13
  Th-T assay signal, mean of three wells (Fig. 7a): 0.2085
Column suffix _50, reading M14
  Th-T assay signal, mean of three wells (Fig. 7a): 0.2061
Column suffix _50, reading M15
  Th-T assay signal, mean of three wells (Fig. 7a): 0.2099
Column suffix _50, reading M16
  Th-T assay signal, mean of three wells (Fig. 7a): 0.2095
Column suffix _50, reading M17
  Th-T assay signal, mean of three wells (Fig. 7a): 0.2108
Column suffix _50, reading M18
  Th-T assay signal, mean of three wells (Fig. 7a): 0.2093
Column suffix _50, reading M85
  Fig. 7a Th-T reading, mean of three wells: 0.38
Column suffix _50, reading M86
  Fig. 7a Th-T reading, mean of three wells: 0.3921
Column suffix _50, reading M87
  Fig. 7a Th-T reading, mean of three wells: 0.401
Column suffix _50, reading M88
  Fig. 7a Th-T reading, mean of three wells: 0.4081
Column suffix _50, reading M89
  Fig. 7a Th-T reading, mean of three wells: 0.4167
Column suffix _50, reading M90
  Fig. 7a Th-T reading, mean of three wells: 0.4233
Column suffix _50, reading M91
  Fig. 7a Th-T reading, mean of three wells: 0.4313
Column suffix _50, reading M92
  Fig. 7a Th-T reading, mean of three wells: 0.4386
Column suffix _50, reading M93
  Fig. 7a Th-T reading, mean of three wells: 0.4449
Column suffix _50, reading M94
  Fig. 7a Th-T reading, mean of three wells: 0.4505
Column suffix _50, reading M95
  Fig. 7a Th-T reading, mean of three wells: 0.4544
Column suffix _50, reading M96
  Fig. 7a Th-T reading, mean of three wells: 0.4583
Column suffix _50, reading M97
  Fig. 7a Th-T reading, mean of three wells: 0.4639
Column suffix _50, reading M98
  Fig. 7a Th-T reading, mean of three wells: 0.4638
Column suffix _50, reading M99
  Fig. 7a Th-T reading, mean of three wells: 0.4696
Column suffix _50, reading M100
  Fig. 7a Th-T reading, mean of three wells: 0.4671
Column suffix _50, reading M101
  Fig. 7a Th-T reading, mean of three wells: 0.4718
Column suffix _50, reading M102
  Fig. 7a Th-T reading, mean of three wells: 0.4727
Column suffix _50, reading M103
  Fig. 7a Th-T reading, mean of three wells: 0.4762
Column suffix _50, reading M104
  Fig. 7a Th-T reading, mean of three wells: 0.4757
Column suffix _50, reading M105
  Fig. 7a Th-T reading, mean of three wells: 0.4769
Column suffix _50, reading M106
  Fig. 7a Th-T reading, mean of three wells: 0.4817
Compound at 10, reading M41 of time course
  Th-T fluorescence, mean of three wells: 0.2566
Compound at 10, reading M42 of time course
  Th-T fluorescence, mean of three wells: 0.2579
Compound at 10, reading M43 of time course
  Th-T fluorescence, mean of three wells: 0.2567
Compound at 10, reading M44 of time course
  Th-T fluorescence, mean of three wells: 0.2585
Compound at 10, reading M45 of time course
  Th-T fluorescence, mean of three wells: 0.2609
Compound at 10, reading M46 of time course
  Th-T fluorescence, mean of three wells: 0.2644
Compound at 10, reading M47 of time course
  Th-T fluorescence, mean of three wells: 0.2626
Compound at 10, reading M48 of time course
  Th-T fluorescence, mean of three wells: 0.2676
Compound at 10, reading M49 of time course
  Th-T fluorescence, mean of three wells: 0.2662
Compound at 10, reading M50 of time course
  Th-T fluorescence, mean of three wells: 0.2709
Compound at 10, reading M51 of time course
  Th-T fluorescence, mean of three wells: 0.2759
Compound at 10, reading M52 of time course
  Th-T fluorescence, mean of three wells: 0.2782
Compound at 10, reading M53 of time course
  Th-T fluorescence, mean of three wells: 0.2826
Compound at 10, reading M54 of time course
  Th-T fluorescence, mean of three wells: 0.2883
Compound at 10, reading M55 of time course
  Th-T fluorescence, mean of three wells: 0.2969
Compound at 10, reading M56 of time course
  Th-T fluorescence, mean of three wells: 0.3032
Compound at 10, reading M57 of time course
  Th-T fluorescence, mean of three wells: 0.3204
Compound at 10, reading M58 of time course
  Th-T fluorescence, mean of three wells: 0.3339
Compound at 10, reading M59 of time course
  Th-T fluorescence, mean of three wells: 0.3536
Compound at 10, reading M60 of time course
  Th-T fluorescence, mean of three wells: 0.3831
Compound at 10, reading M61 of time course
  Th-T fluorescence, mean of three wells: 0.414
Compound at 10, reading M62 of time course
  Th-T fluorescence, mean of three wells: 0.4619
Compound at 20, reading M41 of time course
  Th-T fluorescence, mean of three wells: 0.2134
Compound at 20, reading M42 of time course
  Th-T fluorescence, mean of three wells: 0.2125
Compound at 20, reading M43 of time course
  Th-T fluorescence, mean of three wells: 0.2115
Compound at 20, reading M44 of time course
  Th-T fluorescence, mean of three wells: 0.212
Compound at 20, reading M45 of time course
  Th-T fluorescence, mean of three wells: 0.2129
Compound at 20, reading M46 of time course
  Th-T fluorescence, mean of three wells: 0.214
Compound at 20, reading M47 of time course
  Th-T fluorescence, mean of three wells: 0.2155
Compound at 20, reading M48 of time course
  Th-T fluorescence, mean of three wells: 0.2155
Compound at 20, reading M49 of time course
  Th-T fluorescence, mean of three wells: 0.2153
Compound at 20, reading M50 of time course
  Th-T fluorescence, mean of three wells: 0.2164
Compound at 20, reading M51 of time course
  Th-T fluorescence, mean of three wells: 0.2208
Compound at 20, reading M52 of time course
  Th-T fluorescence, mean of three wells: 0.2184
Compound at 20, reading M53 of time course
  Th-T fluorescence, mean of three wells: 0.2214
Compound at 20, reading M54 of time course
  Th-T fluorescence, mean of three wells: 0.2246
Compound at 20, reading M55 of time course
  Th-T fluorescence, mean of three wells: 0.224
Compound at 20, reading M56 of time course
  Th-T fluorescence, mean of three wells: 0.2282
Compound at 20, reading M57 of time course
  Th-T fluorescence, mean of three wells: 0.2293
Compound at 20, reading M58 of time course
  Th-T fluorescence, mean of three wells: 0.2297
Compound at 20, reading M59 of time course
  Th-T fluorescence, mean of three wells: 0.2309
Compound at 20, reading M60 of time course
  Th-T fluorescence, mean of three wells: 0.2314
Compound at 20, reading M61 of time course
  Th-T fluorescence, mean of three wells: 0.2372
Compound at 20, reading M62 of time course
  Th-T fluorescence, mean of three wells: 0.2381
Compound at 50, reading M41 of time course
  Th-T fluorescence, mean of three wells: 0.2143
Compound at 50, reading M42 of time course
  Th-T fluorescence, mean of three wells: 0.2133
Compound at 50, reading M43 of time course
  Th-T fluorescence, mean of three wells: 0.2141
Compound at 50, reading M44 of time course
  Th-T fluorescence, mean of three wells: 0.2135
Compound at 50, reading M45 of time course
  Th-T fluorescence, mean of three wells: 0.2151
Compound at 50, reading M46 of time course
  Th-T fluorescence, mean of three wells: 0.2145
Compound at 50, reading M47 of time course
  Th-T fluorescence, mean of three wells: 0.2129
Compound at 50, reading M48 of time course
  Th-T fluorescence, mean of three wells: 0.2151
Compound at 50, reading M49 of time course
  Th-T fluorescence, mean of three wells: 0.2127
Compound at 50, reading M50 of time course
  Th-T fluorescence, mean of three wells: 0.2161
Compound at 50, reading M51 of time course
  Th-T fluorescence, mean of three wells: 0.2181
Compound at 50, reading M52 of time course
  Th-T fluorescence, mean of three wells: 0.2182
Compound at 50, reading M53 of time course
  Th-T fluorescence, mean of three wells: 0.2185
